Laboratory results from publication PMC8863579, “Effects of pharmacological inhibition of the sodium‐dependent phosphate cotransporter 2b (NPT2b) on intestinal phosphate absorption in mouse and rat models” (Pharmacology Research & Perspectives, 2022).
Values joined by “and” are separate entries in the source; they are usually repeats but may differ in a detail not shown here. Equal values may be shown once.

What was measured:
NPT2b = target: T1, NPT2b (Rattus norvegicus, UniProt Q9JJ09); assay: Acute phosphate uptake into plasma in rats; assay type: in vivo; conditions: 10 mg/kg
T1 construct: from tissue; host or cells: intestine of live Sprague Dawley rats, oral dosing
T1 sequence (Q9JJ09 1-695): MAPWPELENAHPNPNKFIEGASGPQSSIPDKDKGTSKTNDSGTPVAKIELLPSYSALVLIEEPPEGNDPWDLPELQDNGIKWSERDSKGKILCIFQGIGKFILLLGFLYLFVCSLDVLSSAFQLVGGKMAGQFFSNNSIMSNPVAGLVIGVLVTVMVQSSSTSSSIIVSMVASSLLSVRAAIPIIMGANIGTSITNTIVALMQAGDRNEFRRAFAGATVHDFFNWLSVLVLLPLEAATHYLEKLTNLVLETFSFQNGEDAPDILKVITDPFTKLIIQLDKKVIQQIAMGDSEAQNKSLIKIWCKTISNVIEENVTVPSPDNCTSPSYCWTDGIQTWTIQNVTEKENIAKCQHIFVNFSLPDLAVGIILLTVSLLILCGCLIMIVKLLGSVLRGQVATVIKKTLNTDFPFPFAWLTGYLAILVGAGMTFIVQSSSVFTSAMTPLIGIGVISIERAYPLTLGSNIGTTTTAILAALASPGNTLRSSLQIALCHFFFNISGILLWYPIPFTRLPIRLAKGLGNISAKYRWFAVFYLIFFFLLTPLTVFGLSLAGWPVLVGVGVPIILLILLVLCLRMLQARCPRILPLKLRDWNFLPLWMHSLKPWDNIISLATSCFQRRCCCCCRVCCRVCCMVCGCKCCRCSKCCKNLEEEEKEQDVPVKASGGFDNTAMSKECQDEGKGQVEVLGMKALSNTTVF
Description: A similar method was used to determine the ability of LY3358966 to inhibit acute phosphate uptake into plasma in Sprague Dawley rats (192–225 g, n = 14/group). In the rat studies, a 2 ml volume of the radioactive phosphate dosing solution (about 10 million dpm of H3 ^33PO4) was dosed to each animal. Due to the low inhibitory activity at 15 min after dosing the compound, the effect at 4 h was not determined.

Human NPT2a = target: T2, Human NPT2a (Homo sapiens, UniProt Q06495); assay: 33P-phosphate uptake in CHO cells expressing human NPT2a; assay type: cell-based
T2 construct: Full Length cDNA Cloning and Generation of Cell Lines Over-Expressing Human NPT2a, NPT2c, Pit1, and Pit2; host or cells: CHO-K1 / T-REx CHO, pJTI R4 CMV-TO, tetracycline-induced
T2 sequence (Q06495 1-639): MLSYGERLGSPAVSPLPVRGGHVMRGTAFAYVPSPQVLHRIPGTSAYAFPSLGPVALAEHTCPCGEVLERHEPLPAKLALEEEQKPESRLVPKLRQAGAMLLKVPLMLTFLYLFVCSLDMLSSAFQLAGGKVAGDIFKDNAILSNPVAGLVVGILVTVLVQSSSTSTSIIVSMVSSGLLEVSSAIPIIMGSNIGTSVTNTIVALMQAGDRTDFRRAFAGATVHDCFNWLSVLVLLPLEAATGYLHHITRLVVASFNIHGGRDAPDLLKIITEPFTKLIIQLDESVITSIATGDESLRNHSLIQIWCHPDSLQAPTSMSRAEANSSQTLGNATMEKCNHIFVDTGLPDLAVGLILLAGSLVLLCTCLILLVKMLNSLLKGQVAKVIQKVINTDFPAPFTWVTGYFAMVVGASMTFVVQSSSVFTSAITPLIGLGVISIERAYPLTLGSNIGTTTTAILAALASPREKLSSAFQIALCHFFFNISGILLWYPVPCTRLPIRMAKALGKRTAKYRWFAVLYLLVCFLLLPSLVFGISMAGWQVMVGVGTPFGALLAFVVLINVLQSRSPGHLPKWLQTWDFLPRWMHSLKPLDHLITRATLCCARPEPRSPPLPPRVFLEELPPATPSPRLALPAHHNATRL
Description: T‐Rex™ Chinese Hamster Ovary cells (CHO; Thermo Fisher Scientific) stably expressing human, mouse, or rat NPT2b under a tetracycline‐inducible promoter were generated using standard cDNA transfection and clone selection procedures (see Supporting Information). Cells were plated in 96‐well CytoStar‐T® scintillating microplates and were incubated overnight in growth media plus 100 ng/ml of tetracycline to induce expression of NPT2b. The next day, cells were washed 3 times with 200 µl assay buffer (137 mM NaCl, 5.4 mM KCl, 2.8 mM CaCl2, 1.2 mM MgSO4, and 14 mM Tris‐HCl buffer, pH 7.5). LY3358966 serially diluted 1‐to‐3 in DMSO was added to cells with assay buffer. An equal volume of H3 ^33PO4 (PerkinElmer) in assay buffer supplemented with 5 µM potassium phosphate was then added to initiate radiolabeled phosphate (^33P‐phosphate) uptake. […] The plate was immediately read on a Wallac MicroBeta Trilux liquid scintillation counter. Percent inhibition at all concentrations tested was calculated, and IC50 values were then determined using a 4‐parameter logistic curve fitting equation.
Similar methods were used to measure the effects of LY3358966 on other transporters of interest, except that constitutive promoters were used to generate CHO cells over‐expressing human PiT1 and PiT2. The ^33P‐phosphate uptake was measured after 45 min at 20°C for the NPT2a, NPT2c, PiT1, and PiT2 assays. […]

## CC1(C)CN(C(=O)NCCCCO)CCN1Cc1cccc(C(=O)Nc2sc3c(c2C(=O)Nc2cc(F)c(CCc4ccc(C(=O)O)cc4)c(F)c2)CCCC3)c1 [LY3358966, 4‐[2‐[2,6‐difluoro‐4‐[[2‐[[3‐[[4‐(4‐hydroxybutylcarbamoyl)‐2,2‐dimethyl‐piperazin‐1‐yl]methyl]benzoyl]amino]‐4,5,6,7‐tetrahydrobenzothiophene‐3‐carbonyl]amino]phenyl]ethyl]benzoic acid]
NPT2b; 15 min
  decrease of acute phosphate uptake into plasma, mean ± SEM of three studies: 22% and 22 ± 3%
NPT2b; two additional single studies
  decrease of phosphate absorption (acute uptake into plasma): 28.2% and 19.2%
Human NPT2a; geometric mean, 45 min at 20°C
  IC50: 11 nM
Human NPT2a; ratio of IC50 of human NPT2a assay to that of human NPT2b assay
  Selectivity: 0.3
